The values that follow come from patent publication US20060167242A1, “Cephalosporin in crystalline form” (priority 2004, published 2006).

This series in a line: Determination of storage stability of crystalline material (HPLC analysis after storage). Format: physicochemical. How it is done:
Determination of Storage Stability of Crystalline Material of Formula I
A crystalline and an amorphous sample of (6R,7R)-7-[(Z)-2-(5-Amino-[1,2,4]thiadiazol-3yl)-2-hydroxyimino-acetylamino1-8-oxo-3-[(E)-(R)-1′-(5-methyl-2-oxo-1,3]dioxol-4-ylmethoxycarbonyl)-2-oxo-[1,3′]bipyrrolidinyl-3-ylidenemethyl]-8-oxo-5-thia-1-aza-bicyclo[4.2.0]oct-2-ene-2-carboxylic acid were stored at different temperatures for 24 hours, 28 days and for 3 months.

The mark [1] stands for this setting: 3 months, 5° C. (as compared to −20° C.).
[2] abbreviates: storage for 3 months, Temperature 5, Rel. Humidity Ca. 58%.
The mark [3] stands for this setting: storage for 3 months, Temperature 25, Rel. Humidity Ca. 58%.
The mark [4] stands for this setting: storage for 3 months, −20° C., Rel. Humidity Not defined.
Setting [5] is: storage for 24 hours, Temperature 5, Rel. Humidity Ca. 58%.
[6] abbreviates: storage for 24 hours, Temperature 25, Rel. Humidity Ca. 58%.
Setting [7] is: storage for 24 hours, Temperature 40, Rel. Humidity Ca. 75%.
[8] abbreviates: storage for 24 hours, Temperature 60, Rel. Humidity Ca. 75%.
Setting [9] is: storage for 24 hours, −20° C., Rel. Humidity Not defined.
[10] abbreviates: storage for 28 days, Temperature 5, Rel. Humidity Ca. 58%.
The mark [11] stands for this setting: storage for 28 days, Temperature 25, Rel. Humidity Ca. 58%.
Where [12] appears, read: storage for 28 days, −20° C., Rel. Humidity Not defined.

As for `Cc1oc(=O)oc1COC(=O)N1CC[C@@H](N2CC/C(=C\C3=C(C(=O)O)N4C(=O)[C@@H](NC(=O)/C(=N\O)c5nsc(N)n5)[C@H]4SC3)C2=O)C1` [amorphous compound I, (6R,7R)-7-[(Z)-2-(5-Amino-[1,2,4]thiadiazol-3yl)-2-hydroxyimino-acetylamino1-8-oxo-3-[(E)-(R)-1′-(5-methyl-2-oxo-1,3]dioxol-4-ylmethoxycarbonyl)-2-oxo-[1,3′]bipyrrolidinyl-3-ylidenemethyl]-8-oxo-5-thia-1-aza-bicyclo[4.2.0]oct-2-ene-2-carboxylic acid], the “decomposition on storage (in words)” value is, setting by setting: under setting [1], “slight decomposition”; (3 months, 25° C.) “strongly decreased”; (28 days, 5° C.) “decreased”; (storage for 24 hours, temperatures above 5° C.) “decomposed significantly”. Further, the “Area-% (HPLC)” value is, setting by setting: under setting [2], 96.9 Area-%; under setting [3], 91.4 Area-%; under setting [4], 97.6 Area-%; under setting [5], 99.05 Area-%; under setting [6], 98.85 Area-%; under setting [7], 98.25 Area-%. Further, the “Area-% (HPLC)” value was determined as 96.67 Area-% under setting [8]; 99.04 Area-% under setting [9]; 98.1 Area-% under setting [10]; 96.4 Area-% under setting [11]; 98.6 Area-% under setting [12].
Consider `Cc1oc(=O)oc1COC(=O)N1CC[C@@H](N2CC/C(=C\C3=C(C(=O)O)N4C(=O)[C@@H](NC(=O)/C(=N\O)c5nsc(N)n5)[C@H]4SC3)C2=O)C1.Cl` [crystalline compound II, (6R,7R)-7-[(Z)-2-(5-Amino-[1,2,4]thiadiazol-3-yl) -2-hydroxyimino-acetylamino]-8-oxo-3-[(E)-(R)-1′-(5-methyl-2-oxo-[1,3]dioxol-4-ylmethoxycarbonyl)-2-oxo-[1,3′]bipyrrolidinyl-3-ylidenemethyl]-8-oxo5-thia-1-aza-bicyclo[4.2.0]oct-2-ene-2-carboxylic acid Hydrochloride Trihydrate], for which the “decomposition on storage (in words)” value is, setting by setting: under setting [1], “no decomposition”; (3 months, 25° C.) “slight decomposition”; (28 days, 25° C.) “slight decomposition”. Also, the “Area-% (HPLC)” value under setting [2] stood at 93.9 Area-%; the “Area-% (HPLC)” value under setting [3] was 93.4 Area-%; the “Area-% (HPLC)” value under setting [4] worked out at 94 Area-%; the “Area-% (HPLC)” value under setting [5] is 95.7 Area-%; the “Area-% (HPLC)” value under setting [6] was 95.75 Area-%; the “Area-% (HPLC)” value under setting [7] was 95.45 Area-%. Also, the “Area-% (HPLC)” value under setting [8] was 95.57 Area-%; the “Area-% (HPLC)” value under setting [9] is recorded as 95.77 Area-%; the “Area-% (HPLC)” value under setting [10] is on record as 95.2 Area-%; the “Area-% (HPLC)” value under setting [11] amounted to 94.9 Area-%; the “Area-% (HPLC)” value under setting [12] was 95.3 Area-%. For the same molecule, the “stability on storage (in words)” value (storage for 24 hours, whole temperature range of investigation) is “very good stability”.
